# Results: US4904668A, “Benzoyl urea compound” (Ishihara Sangyo Kaisha Ltd., priority 1986, dated 1990)
# What was measured:
# [1] = stability of particles in the liquid composition on storage at room temperature; format: physicochemical; conditions: compound 40 w/v%, HCO-60 10 w/v%
# Description: (§1) The average particle size was measured in such a manner that the benzoyl urea compound was diluted to a concentration of 20 μg/ml and the average particle size was measured by a light scattering method (Autosizer, Model 700, manufactured by Maruburn Company) (the same applies hereinafter).
# The stability of particles in the liquid composition of the benzoyl urea compound was investigated.
# Namely, a wet pulverization formulation comprising compound No. 3 (40 w/v%) and HCO-60 (10 w/v%) was stored at room temperature, whereby the stability of the particles was investigated.
# [2] = average particle size of pulverized benzoyl urea compound by light scattering (Autosizer Model 700); format: physicochemical; conditions: for average particle size in the liquid formulation: 3000 rpm 45 minutes, autoclaved
# Description: Compound No. 3, No. 5 or No. 6 (4 w/v%) as the benzoyl urea compound and polyoxyethylene hardened caster oil 60 (HCO-60, manufactured by Nikko Chemical K.K., 10 w/v%) as a dispersant were suspended in water, and after an addition of glass beads (from 1 to 1.4 mm in diameter) in an amount of the same volume, subjected to rotary pulverization by Dyno-mill for 20 minutes.
# as §1
# Compound No. 3 (4 w/v%) and the following dispersant (10 w/v%) were suspended in water, and after an addition of glass beads (from 1 to 1.4 mm in diameter) in an amount of the same volume, subjected to rotary pulverization by Dyno-mill for 45 minutes. As the dispersant, polyoxyethylene hardened caster oil 60 (HCO-60, manufactured by Nikko Chemical K.K.), polyoxyethylene (160) polyoxypropylene (30) glycol (F68, manufactured by Asahi Denka Kogyo K.K.), a decaglycerol fatty acid ester (Decagly.ester, Nikko Chemical K.K.) or polysolbate 80 (Tween 80, manufactured by Nakarai Kagaku K.K.) was employed.
# Compound No. 3 (from 10 to 40 w/v%), HCO-60 (5 w/v%) as a dispersant and glass beads (from 1 to 1.5 mm in diameter) were subjected to rotary pulverization by Dyno-mill for pulverization time of 30 minutes. Then, the average particle size of the benzoyl urea compound was measured.
# Compound No. 3 (20 w/v%), HCO-60 (from 2.5 to 10 w/v%) as the dispersant and glass beads (from 1 to 1.5 mm in diameter) were subjected to rotary pulverization by Dyno-mill for a pulverization time of 30 minutes. Then, the average particle size of the benzoyl urea compound was measured.
# Compound No. 3 (40 w/v%), HCO-60 (5 w/v%) as the dispersant and glass beads (three types having a diameter of from 0.25 to 0.5, from 0.5 to 0.75 and from 1 to 1.5 mm, respectively) were subjected to rotary pulverization by Dyno-mill for a pulverization time of 30 minutes. Then, the average particle size of the benzoyl urea compound was measured.
# Compound No. 3 (40 w/v%), HCO-60 (5 w/v%) as the dispersant and glass beads (from 0.25 to 0.5 mm in diameter), were subjected to rotary pulverization by Dyno-mill for a pulverization time of from 10 to 60 minutes. Then, the average particle size of the benzoyl urea compound was measured.
# Compound No. 3 (20 g) was suspended in 50 ml of a 5 w/v% HCO-60 aqueous solution, and the suspension was wet pulverized (3000 rpm for 45 minutes) by Dyno-mill by using 50 g of glass beads (from 0.25 to 0.5 mm in diameter). After the completion of the pulverization, glass beads were removed by sieving, to obtain a wet pulverized formulation of Compound No. 3.
# The wet pulverized formulation thus obtained was sterilized in an autoclave to obtain a liquid formulation of a final form. The average particle size of Compound No. 3 in this liquid formulation was 0.68 μm. Instead of the sterilization in an autoclave, it is possible to employ filtration to remove bacteria. If necessary, a sweetening agent, a perfume, etc. may be added.
# Compound No. 3 (15 g) was suspended in 50 ml of a 5 w/v% decaglycerol monolaurate (Decagline 1 L, manufactured by Nikko Chemical K.K.) aqueous solution, and the suspension was wet pulverized (3000 rpm for 45 minutes) by Dyno-mill by using 50 g of glass beads (from 0.25 to 0.5 mm in diameter). After the completion of the pulverization, glass beads were removed by sieving, to obtain a wet pulverized formulation of Compound No. 3.
# The wet pulverized formulation thus obtained was sterilized in an autoclave to obtain a liquid formulation of a final form. The average particle size of Compound No. 3 in this liquid formulation was 0.75 μm. Instead of the sterilization in an autoclave, it is possible to employ filtration to remove bacteria. If necessary, a sweetening agent, a perfume, etc. may be added. […]
# [3] = oral administration of wet pulverized formulations to rats, AUC of concentration in blood; format: in vivo, Wister male rats; conditions: rat, plasma, 50 mg/kg, 50 mg/5 ml/kg, compound 40 w/v%, HCO-60 10 w/v%
# Description: Each of four wet pulverized formulations having different particle sizes [composition: Compound No. 3 (40 w/v%) and HCO-60 (10 w/v%)] was forcibly orally administered by an oral sonde to a group of 5 Wister male rats (body weight: 200 g) starved for 18 hours (dose: 50 mg/5 ml/kg). Then, blood (0.3 ml) was periodically sampled with heparin from the jugular vein. The blood thus obtained was subjected to separation of the plasma and removal of proteins by using acetonitrile, and then Compound No. 3 was quantitatively analyzed by a high speed liquid chromatography using a reversed phase column (Nova Pak C18, 5μ, 3.9 mm in diameter×150 mm, Nihon Waters), and the curve of the concentration in blood was prepared. From the curve of the concentration in blood, the area below the curve was obtained by using a trapezoid formula and presented as AUC (Area Under the Curve).
# [4] = compound 4 w/v%, HCO-60 10 w/v%, glass beads 1 to 1.4 mm, Dyno-mill 20 minutes
smiles,measurement,setting,value
O=C(NC(=O)c1ccccc1[N+](=O)[O-])Nc1ccc(Oc2ncc(Br)cn2)c(Cl)c1 [Compound No. 3],Particle size on storage,[1]; 0 months,0.7 μm
same,Particle size on storage,[1]; 1 month,0.8 μm
same,Particle size on storage,[1]; 3 months,1.3 μm
same,average particle size in the liquid formulation,"[2]; Example 1: 20 g in 50 ml 5 w/v% HCO-60, beads 0.25 to 0.5 mm",0.68 μm
same,average particle size in the liquid formulation,"[2]; Example 3: 15 g in 50 ml 5 w/v% decaglycerol monolaurate, beads 0.25 to 0.5 mm",0.75 μm
same,Particle size (average),[2]; [4],0.43 μm
same,Particle size (average),"[2]; diameter of beads 0.25-0.5 mm, compound 40 w/v%, HCO-60 5 w/v%, 30 minutes",0.30 μm
same,Particle size (average),"[2]; diameter of beads 0.5-0.75 mm, compound 40 w/v%, HCO-60 5 w/v%, 30 minutes",0.33 μm
same,Particle size (average),"[2]; diameter of beads 1-1.5 mm, compound 40 w/v%, HCO-60 5 w/v%, 30 minutes (Table 5)",0.46 μm
same,Particle size (average),"[2]; dispersant Decagly.ester 10 w/v%, compound 4 w/v%, beads 1 to 1.4 mm, 45 minutes",0.6 μm
same,Particle size (average),"[2]; dispersant F68 10 w/v%, compound 4 w/v%, beads 1 to 1.4 mm, 45 minutes",0.9 μm
same,Particle size (average),"[2]; dispersant HCO-60 2.5 w/v%, compound 20 w/v%, beads 1 to 1.5 mm, 30 minutes",0.54 μm
same,Particle size (average),"[2]; dispersant HCO-60 5 w/v%, compound 20 w/v%, beads 1 to 1.5 mm, 30 minutes (Table 4)",0.50 μm
same,Particle size (average),"[2]; dispersant HCO-60 10 w/v%, compound 4 w/v%, beads 1 to 1.4 mm, 45 minutes",0.9 μm
same,Particle size (average),"[2]; dispersant HCO-60 10 w/v%, compound 20 w/v%, beads 1 to 1.5 mm, 30 minutes",0.45 μm
same,Particle size (average),"[2]; dispersant Tween 80 10 w/v%, compound 4 w/v%, beads 1 to 1.4 mm, 45 minutes",0.6 μm
same,Particle size (average),"[2]; pulverization time 10 minutes, compound 40 w/v%, HCO-60 5 w/v%, beads 0.25 to 0.5 mm",0.38 μm
same,Particle size (average),"[2]; pulverization time 20 minutes, compound 40 w/v%, HCO-60 5 w/v%, beads 0.25 to 0.5 mm",0.33 μm
same,Particle size (average),"[2]; pulverization time 30 minutes, compound 40 w/v%, HCO-60 5 w/v%, beads 0.25 to 0.5 mm (Table 6)",0.29 μm
same,Particle size (average),"[2]; pulverization time 40 minutes, compound 40 w/v%, HCO-60 5 w/v%, beads 0.25 to 0.5 mm",0.27 μm
same,Particle size (average),"[2]; pulverization time 50 minutes, compound 40 w/v%, HCO-60 5 w/v%, beads 0.25 to 0.5 mm",0.26 μm
same,Particle size (average),"[2]; pulverization time 60 minutes, compound 40 w/v%, HCO-60 5 w/v%, beads 0.25 to 0.5 mm",0.26 μm
same,Particle size (average),"[2]; sample 10 w/v%, HCO-60 5 w/v%, beads 1 to 1.5 mm, 30 minutes",0.56 μm
same,Particle size (average),"[2]; sample 20 w/v%, HCO-60 5 w/v%, beads 1 to 1.5 mm, 30 minutes",0.50 μm
same,Particle size (average),"[2]; sample 40 w/v%, HCO-60 5 w/v%, beads 1 to 1.5 mm, 30 minutes",0.46 μm
same,AUC(0-t) at 24 h,[3]; particle size 0.31 μm,11600 ± 2300 ng·h/mL
same,AUC(0-t) at 24 h,[3]; particle size 0.66 μm,10000 ± 1600 ng·h/mL
same,AUC(0-t) at 24 h,[3]; particle size 1.5 μm,8100 ± 1200 ng·h/mL
same,AUC(0-t) at 24 h,[3]; particle size 2.5 μm,6900 ± 1400 ng·h/mL
O=C(NC(=O)c1ccccc1[N+](=O)[O-])Nc1ccc(Oc2ncc(Cl)cn2)c(C(F)(F)F)c1 [Compound No. 5],Particle size (average),[2]; [4],1.13 μm
O=C(NC(=O)c1ccccc1[N+](=O)[O-])Nc1ccc(Oc2ncc(Cl)cn2)c([N+](=O)[O-])c1 [Compound No. 6],Particle size (average),[2]; [4],0.72 μm
